Reference: publication PMC11979273, “A phase I study to evaluate the safety, tolerability, and pharmacokinetics of HEC113995PA·H2O, a novel dual-acting serotonergic antidepressant, in healthy subjects” (Frontiers in Pharmacology, 2025)

Experiments:
[1] = Food effect study, safety (adverse events); format: in vivo, human
Description: A total of 18 healthy subjects of both genders, were assigned randomly to three sequences A, B, and C (n = 6). All subjects received HEC113995PA·H2O tablets, with a total of 3 times administered during the trial, once per cycle, and a washout period of ≥11 days. In sequence A, the order of administration was as follows: fasting, after a standard meal, and after a high-fat meal. In sequence B, the order of administration was after a standard meal, after a high-fat meal, and fasting. Sequence C subjects were administered in the following order: after a high-fat meal, fasting, and after a standard meal. During the fed periods, a single oral dose of HEC113995PA·H2O tablet 20 mg was administered within 30 min after consumption of a standard meal (total calories: approximately 600 kcal), or a high-fat, high-calorie meal (total calories: approximately 800 kcal–1,000 kcal, which derives about 150, 250, and 500–600 kcal from protein, carbohydrate, and fat, respectively). Serial blood samples were collected before and after each cycle for PK determination of plasma concentration and the evaluation of pharmacokinetic characteristics. Safety and tolerability were assessed on days 4 and 28.
Safety indicators were assessed through adverse events (AE), clinical laboratory tests (including blood routine, blood biochemistry, urine routine), vital signs monitoring (ear temperature), pulse, respiration and blood pressure in a sitting position), 12-lead electrocardiogram (ECG) and physical examinations. Adverse events (AE) and serious adverse events (SAE) were evaluated following the criteria outlined in National Cancer Institute Common Terminology Criteria for Adverse Events (NCI-CTCAE) version 5.0.
Any adverse events that occurred in all subjects during the clinical trial were recorded with the following details: AE name, occurrence time, end time, severity, whether it was classified as a SAE, severity criteria (if applicable), treatment measures and outcomes, actions taken on investigational drug due to the AE, and the causal relationship between the AE and administrated drug, etc. Each AE was recorded separately.

Solubility in solvents = format: physicochemical
5-HT1A receptor = target: T1, 5-HT1A receptor (Homo sapiens, UniProt P08908); experiment: 5-HT1A receptor agonism (EC50, EMAX); format: biochemical; details: in vitro; unpublished data
T1 sequence (P08908 1-422): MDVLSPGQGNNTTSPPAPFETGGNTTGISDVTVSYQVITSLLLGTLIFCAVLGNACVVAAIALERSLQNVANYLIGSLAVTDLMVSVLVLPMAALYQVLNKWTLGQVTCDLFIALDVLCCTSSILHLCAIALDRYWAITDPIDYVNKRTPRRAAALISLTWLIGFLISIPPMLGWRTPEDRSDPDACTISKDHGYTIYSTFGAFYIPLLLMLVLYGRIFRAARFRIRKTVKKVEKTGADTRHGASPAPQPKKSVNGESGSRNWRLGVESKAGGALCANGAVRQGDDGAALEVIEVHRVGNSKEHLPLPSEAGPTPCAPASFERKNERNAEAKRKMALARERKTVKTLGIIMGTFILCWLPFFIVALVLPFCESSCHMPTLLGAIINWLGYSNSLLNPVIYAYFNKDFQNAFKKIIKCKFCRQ

[2] = FE trial 20 mg, 1 case, after a high-fat meal
[3] = FE trial 20 mg, after a high-fat meal
[4] = FE trial 20 mg, after a high-fat meal, 5 incidents
[5] = FE trial 20 mg, after a standard meal
[6] = FE trial 20 mg, fasting conditions
[7] = FE trial 20 mg, overall, 2 cases

## Cc1nc(-c2cnc(N3CCN(CCCc4c[nH]c5ccc(C#N)cc45)CC3)nc2)sc1C(N)=O [HEC113995PA·H2O]
[1]; 20 mg fasting, after a standard meal and after a high-fat meal
  safety and tolerability: good safety and tolerability
[1]; [2]
  TRAE incidence: elevated blood bilirubin: 5.6%
  TRAE incidence: elevated conjugated bilirubin: 5.6%
[1]; [3]
  TRAE: elevated blood triglycerides: 1 case
  TRAE: elevated blood uric acid: 2 cases
  TRAE: nausea: 1 case
[1]; [4]
  TEAE incidence: 27.8%
  TRAE incidence: 27.8%
[1]; [5]
  TRAE: elevated blood uric acid: 2 cases
  TRAE: nausea: 1 case
[1]; FE trial 20 mg, after a standard meal, 3 incidents
  TRAE incidence: 16.7%
[1]; FE trial 20 mg, after a standard meal, 4 incidents
  TEAE incidence: 22.2%
[1]; FE trial 20 mg, fasting administration
  TEAE incidents: 6 incidents
[1]; FE trial 20 mg, fasting administration, 4 incidents
  TRAE incidence: 22.2%
[1]; [6]
  TRAE: elevated blood triglycerides: 1 case
  TRAE: elevated blood uric acid: 1 case
  TRAE: nausea: 2 cases
[1]; [7]
  TRAE incidence: elevated blood triglycerides: 11.1%
  TRAE incidence: nausea: 11.1%
[1]; FE trial 20 mg, overall, 4 cases
  TRAE incidence: elevated blood uric acid: 22.2%
[1]; FE trial 20 mg, overall, 9 subjects, 13 TRAEs
  incidence of subjects experiencing TRAEs: 50.0%
[1]; FE trial 20 mg, overall, 11 subjects, 20 incidents
  incidence of subjects experiencing TEAE: 61.1%
[1]; FE trial 20 mg, resolved spontaneously without treatment
  severity of all TRAEs: Grade 1
Solubility in solvents; 95% ethanol
  solubility: practically insoluble
Solubility in solvents; N,N-dimethylacetamide (DMA)
  solubility: soluble
Solubility in solvents; acetone
  solubility: practically insoluble
Solubility in solvents; acetonitrile
  solubility: practically insoluble
Solubility in solvents; dichloromethane
  solubility: practically insoluble
Solubility in solvents; dimethyl sulfoxide (DMSO)
  solubility: readily soluble
Solubility in solvents; methanol
  solubility: practically insoluble
Solubility in solvents; water
  solubility: practically insoluble
5-HT1A receptor
  5-HT1A receptor activity relative to Vortioxetine: comparable activity
  activity in agonizing 5-HT1A receptor relative to HEC61139 (Vilazodone): slightly weaker activity
